pIC50: −log10 of the molar value. *1 amine or outer side, *2 acyl side, *3 side chain or, on linkers, in order; H or OH if unused. Where a SMILES comes first, the peptide text is derived from it. Bridges are numbered along the chain shown (N, C = ends). [ ]: non-standard residue; d: D form. ξ: configuration not given here. Trp(1-CH2COOH) = N[C@@H](Cc1cn(CC(=O)O)c2ccccc12)C(=O)O; Trp(βS-Me) = C[C@@H](c1c[nH]c2ccccc12)[C@H](N)C(=O)O; Phe(3,4,5-F3) = N[C@@H](Cc1cc(F)c(F)c(F)c1)C(=O)O; NMeAla(4-thiazolyl) = CN[C@@H](Cc1cscn1)C(=O)O; Phe(3,4-F2) = N[C@@H](Cc1ccc(F)c(F)c1)C(=O)O; d(cisHyp) = O=C(O)[C@H]1C[C@@H](O)CN1; Bta = N[C@@H](Cc1csc2ccccc12)C(=O)O; Hyp = O=C(O)[C@@H]1C[C@@H](O)CN1; NMeF = CN[C@@H](Cc1ccccc1)C(=O)O; X1 = O=C([C@H]1COCCN1[*:1])[*:2]; dNMeF = CN[C@H](Cc1ccccc1)C(=O)O; dPip(4-aza) = O=C(O)[C@H]1CNCCN1; dHyp = O=C(O)[C@H]1C[C@H](O)CN1; NMeNle = CCCC[C@H](NC)C(=O)O; Pip = O=C(O)[C@@H]1CCCCN1; dPip = O=C(O)[C@H]1CCCCN1; hSer = N[C@@H](CCO)C(=O)O; NMeA = CN[C@@H](C)C(=O)O; Orn = NCCC[C@H](N)C(=O)O; Dab = NCC[C@H](N)C(=O)O; Abu = CC[C@H](N)C(=O)O; Dap = NC[C@H](N)C(=O)O; ξC = NC(CS)C(=O)O; Sar = CNCC(=O)O
Biological target: T1, Human PD-L1/PD-1 (Homo sapiens, UniProt Q9NZQ7)
T1 construct: TVMV protease cleavage site (C); made in house; host or cells: HEK293T cells
Test: HTRF Human PD-L1/PD-1 binding assay (PD-1-Ig/PD-L1-His)
Conditions: PD-L1-His 10 nM, PD-1-Ig 20 nM; class symbol; read-out: HTRF Human PD-L1/PD-1 Binding Assay IC50 Range
Method in brief: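 HTRF read-out (665/620 nm ratio) after 30 min equilibration with Eu-cryptate anti-Ig mAb (1 nM) and APC anti-His mAb (20 nM). Peptides preincubated 15 min with PD-L1-His (10 nM), then PD-1-Ig (20 nM) added for 15 min.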

T1 sequence (Q9NZQ7 with tags, fused parts or gaps): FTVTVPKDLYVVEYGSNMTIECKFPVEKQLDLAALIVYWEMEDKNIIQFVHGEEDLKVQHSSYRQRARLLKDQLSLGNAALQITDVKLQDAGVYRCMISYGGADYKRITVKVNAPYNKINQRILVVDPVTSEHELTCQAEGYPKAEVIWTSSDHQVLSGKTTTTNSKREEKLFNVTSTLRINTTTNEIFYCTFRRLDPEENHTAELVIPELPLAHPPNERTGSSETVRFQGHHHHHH

Structure (SMILES)	pIC50
CCCC[C@H]1C(=O)N(C)CC(=O)N[C@@H](CC(=O)O)C(=O)N[C@@H](C)C(=O)N(C)[C@@H](Cc2ccccc2)C(=O)N[C@@H](Cc2ccc(O)cc2)C(=O)N2CCCC[C@@H]2C(=O)N[C@@H](Cc2c[nH]c3ccccc23)C(=O)N[C@@H](Cc2ccc(O)cc2)C(=O)N[C@@H](CC(C)C)C(=O)N[C@H](C(=O)NCC(N)=O)CSCC(=O)N[C@@H](Cc2ccccc2)C(=O)N(C)[C@@H](Cc2ccccc2)C(=O)N1C [Example 10081] ({CH2CO}-F[NMeF][NMeNle][Sar]DA[NMeF]Y[dPip]WYLCG-NH2; thioether N-13)	7.00 to 8.00
CCCC[C@H]1C(=O)N[C@@H](CC(N)=O)C(=O)N2CCC[C@H]2CN[C@@H](CO)C(=O)N[C@@H](CCO)C(=O)N2CCC[C@H]2C(=O)N[C@@H](Cc2c[nH]c3ccccc23)C(=O)N[C@@H](CN)C(=O)N[C@@H](Cc2c[nH]c3ccccc23)C(=O)N(C)[C@@H](C)C(=O)N(C)[C@@H](C)C(=O)N[C@@H](CCCNC(=N)N)C(=O)NC(C(=O)NCC(N)=O)CSCC(=O)N[C@@H](Cc2ccc(O)cc2)C(=O)N1C (stereo partly shown) [Example 10196]	5.00 to 6.00
CCCC[C@H]1C(=O)N(C)[C@@H](CCCC)C(=O)N[C@@H](CC(C)C)C(=O)N[C@H](C(=O)NCC(N)=O)CSCC(=O)N[C@@H](Cc2ccc(O)cc2)C(=O)N(C)[C@@H](C)C(=O)N[C@@H](CC(N)=O)C(=O)N(C)CC(=O)N[C@@H](Cc2cnc[nH]2)C(=O)N[C@@H](CCC(=O)O)C(=O)N2C[C@H](O)C[C@H]2C(=O)N[C@@H](Cc2c[nH]c3ccccc23)C(=O)N[C@@H](CCN)C(=O)N[C@@H](Cc2csc3ccccc23)C(=O)N1C [Example 5225] ({CH2CO}-Y[NMeA]N[Sar]HE[Hyp]W[Dab][Bta][NMeNle][NMeNle]LCG-NH2; thioether N-14)	8.00 to 9.00
CCCC[C@H]1C(=O)N2CCC[C@@H]2C(=O)N[C@@H](CO)C(=O)N[C@@H](CC)C(=O)N(C)[C@@H](Cc2ccccc2)C(=O)N[C@@H](Cc2ccc(O)cc2)C(=O)N(C)CC(=O)N[C@@H](Cc2c[nH]c3ccccc23)C(=O)N[C@@H](Cc2ccc(O)cc2)C(=O)N[C@@H](CC(C)C)C(=O)N[C@H](C(=O)NCC(N)=O)CSCC(=O)N[C@@H](Cc2ccccc2)C(=O)N(C)[C@@H](Cc2ccccc2)C(=O)N1C [Example 10058] ({CH2CO}-F[NMeF][NMeNle][dP]S[Abu][NMeF]Y[Sar]WYLCG-NH2; thioether N-13)	7.00 to 8.00
CCCC[C@H]1C(=O)N2CCOC[C@@H]2C(=O)N[C@@H](CC(=O)O)C(=O)N[C@@H](C(C)C)C(=O)N(C)[C@@H](Cc2ccccc2)C(=O)N[C@@H](Cc2ccc(O)cc2)C(=O)N2C[C@H](O)C[C@@H]2C(=O)N[C@@H](Cc2c[nH]c3ccccc23)C(=O)N[C@@H](Cc2ccc(O)cc2)C(=O)N[C@@H](CCOC)C(=O)N[C@H](C(=O)NCC(N)=O)CSCC(=O)N[C@@H](Cc2cc(F)c(F)c(F)c2)C(=O)N(C)[C@@H](Cc2ccccc2)C(=O)N1C [Example 10183] ({CH2CO}-[Phe(3,4,5-F3)][NMeF][NMeNle][X1]DV[NMeF]Y[d(cisHyp)]WY[hSer](Me)CG-NH2; thioether N-13)	7.00 to 8.00
CCCC[C@H]1C(=O)N(C)[C@@H](CCCC)C(=O)N[C@@H](CC(C)C)C(=O)N[C@H](C(N)=O)CSCC(=O)N[C@@H](Cc2ccc(O)cc2)C(=O)N(C)[C@@H](C)C(=O)N[C@@H](CC(N)=O)C(=O)N2CCC[C@H]2C(=O)N[C@@H](CN)C(=O)N[C@@H](CC(C)C)C(=O)N2C[C@H](O)C[C@H]2C(=O)N[C@@H]([C@@H](C)c2c[nH]c3ccccc23)C(=O)N[C@@H](CO)C(=O)N[C@@H](Cc2c[nH]c3ccccc23)C(=O)N1C [Example 10532] ({CH2CO}-Y[NMeA]NP[Dap]L[Hyp][Trp(βS-Me)]SW[NMeNle][NMeNle]LC-NH2; thioether N-14)	8.00 to 9.00
CCCC[C@H]1C(=O)N2C[C@H](O)C[C@@H]2C(=O)N[C@@H](CC(=O)O)C(=O)N[C@@H](C(C)C)C(=O)N(C)[C@@H](Cc2ccccc2)C(=O)N[C@@H](CCC(=O)O)C(=O)N2CCNC[C@@H]2C(=O)N[C@@H](Cc2c[nH]c3ccccc23)C(=O)N[C@@H](Cc2ccc(O)cc2)C(=O)N[C@@H](CCCN)C(=O)N[C@H](C(=O)NCC(N)=O)CSCC(=O)N[C@@H](Cc2cc(F)c(F)c(F)c2)C(=O)N(C)[C@@H](Cc2ccccc2)C(=O)N1C [Example 10166] ({CH2CO}-[Phe(3,4,5-F3)][NMeF][NMeNle][d(cisHyp)]DV[NMeF]E[dPip(4-aza)]WY[Orn]CG-NH2; thioether N-13)	8.00 to 9.00
CCCC[C@H]1C(=O)N2C[C@@H](O)C[C@@H]2C(=O)N[C@@H](CC(=O)O)C(=O)N[C@@H](C(C)C)C(=O)N(C)[C@@H](Cc2ccccc2)C(=O)N[C@@H](CCC(=O)O)C(=O)N2C[C@@H](O)C[C@@H]2C(=O)N[C@@H](Cc2c[nH]c3ccccc23)C(=O)N[C@@H](Cc2ccc(O)cc2)C(=O)N[C@@H](CCCN)C(=O)N[C@H](C(=O)NCC(N)=O)CSCC(=O)N[C@@H](Cc2cc(F)c(F)c(F)c2)C(=O)N(C)[C@@H](Cc2ccccc2)C(=O)N1C [Example 9276] ({CH2CO}-[Phe(3,4,5-F3)][NMeF][NMeNle][dHyp]DV[NMeF]E[dHyp]WY[Orn]CG-NH2; thioether N-13)	8.00 to 9.00
CCCC[C@H]1C(=O)N(C)[C@@H](CCCC)C(=O)N[C@@H](CCC(=O)O)C(=O)N[C@H](C(=O)NCC(N)=O)CSCC(=O)N[C@@H](Cc2ccc(O)cc2)C(=O)N(C)[C@@H](C)C(=O)N[C@@H](CC(=O)O)C(=O)N2CCC[C@H]2C(=O)N[C@@H](CO)C(=O)N[C@@H](CCC(N)=O)C(=O)N2C[C@H](O)C[C@H]2C(=O)N[C@@H](Cc2c[nH]c3ccccc23)C(=O)N[C@@H](CO)C(=O)N[C@@H](Cc2c[nH]c3ccccc23)C(=O)N1C [Example 5214] ({CH2CO}-Y[NMeA]DPSQ[Hyp]WSW[NMeNle][NMeNle]ECG-NH2; thioether N-14)	8.00 to 9.00
CCCC[C@H]1C(=O)N(C)[C@@H](CCCC)C(=O)N[C@@H](CN)C(=O)N[C@H](C(=O)NCC(N)=O)CSCC(=O)N[C@@H](Cc2ccc(O)cc2)C(=O)N2CCCC[C@H]2C(=O)N[C@@H](CC(N)=O)C(=O)N2CCC[C@H]2C(=O)N[C@@H](CN)C(=O)N[C@@H](CCC(=O)O)C(=O)N2C[C@H](O)C[C@H]2C(=O)N[C@@H](Cc2c[nH]c3ccccc23)C(=O)N[C@@H](CCN)C(=O)N[C@@H](Cc2c[nH]c3ccccc23)C(=O)N1C [Example 1519] ({CH2CO}-Y[Pip]NP[Dap]E[Hyp]W[Dab]W[NMeNle][NMeNle][Dap]CG-NH2; thioether N-14)	8.00 to 9.00
CCCC[C@H]1C(=O)N(C)[C@@H](CCCC)C(=O)N[C@@H](CCCNC(=N)N)C(=O)NC(C(=O)NCC(N)=O)CSCC(=O)N[C@@H](Cc2ccc(O)cc2)C(=O)N(C)[C@@H](C)C(=O)N[C@@H](CC(N)=O)C(=O)N2CCC[C@H]2C(=O)N[C@@H](CC(N)=O)C(=O)N[C@@H](CC(N)=O)C(=O)N2C[C@H](O)C[C@H]2C(=O)N[C@@H](Cc2c[nH]c3ccccc23)C(=O)N[C@@H](CO)C(=O)N[C@@H](Cc2csc3ccccc23)C(=O)N1C (stereo partly shown) [Example 10012] ({CH2CO}-Y[NMeA]NPNN[Hyp]WS[Bta][NMeNle][NMeNle]R[ξC]G-NH2; thioether N-14)	7.00 to 8.00
CCCC[C@H]1C(=O)N2C[C@H](O)C[C@@H]2C(=O)N[C@@H](CC(=O)O)C(=O)N[C@@H](C(C)C)C(=O)N(C)[C@H](Cc2ccccc2)C(=O)N[C@@H](CCCN)C(=O)N2C[C@H](O)C[C@@H]2C(=O)N[C@@H](Cc2c[nH]c3ccccc23)C(=O)N[C@@H](Cc2ccc(O)cc2)C(=O)N[C@@H](CC(C)C)C(=O)N[C@H](C(=O)NCC(N)=O)CSCC(=O)N[C@@H](Cc2ccc(F)c(F)c2)C(=O)N(C)[C@@H](Cc2ccccc2)C(=O)N1C [Example 9297] ({CH2CO}-[Phe(3,4-F2)][NMeF][NMeNle][d(cisHyp)]DV[dNMeF][Orn][d(cisHyp)]WYLCG-NH2; thioether N-13)	8.00 to 9.00
CCCC[C@H]1C(=O)N(C)[C@@H](CCCC)C(=O)N[C@@H](CCCNC(=N)N)C(=O)N[C@H](C(=O)NCC(N)=O)CSCC(=O)N[C@@H](Cc2ccc(O)cc2)C(=O)N(C)[C@@H](C)C(=O)N[C@@H](CC(N)=O)C(=O)N2CCC[C@H]2C(=O)N[C@@H](Cc2cnc[nH]2)C(=O)N[C@@H](CCCCN)C(=O)N2C[C@H](O)C[C@H]2C(=O)N[C@@H](Cc2c[nH]c3ccccc23)C(=O)N[C@@H](CO)C(=O)N[C@@H](Cc2cn(CC(=O)O)c3ccccc23)C(=O)N1C [Example 6338] ({CH2CO}-Y[NMeA]NPHK[Hyp]WS[Trp(1-CH2COOH)][NMeNle][NMeNle]RCG-NH2; thioether N-14)	7.00 to 8.00
CCCC[C@H]1C(=O)N(C)CC(=O)N[C@@H](CC(N)=O)C(=O)N[C@@H](C(C)C)C(=O)N(C)[C@@H](Cc2ccccc2)C(=O)N[C@@H](Cc2ccc(O)cc2)C(=O)N(C)CC(=O)N[C@@H](Cc2c[nH]c3ccccc23)C(=O)N[C@@H](Cc2ccc(O)cc2)C(=O)N[C@@H](CCCN)C(=O)N[C@H](C(=O)NCC(N)=O)CSCC(=O)N[C@@H](Cc2ccccc2)C(=O)N(C)[C@@H](Cc2cscn2)C(=O)N1C [Example 3616] ({CH2CO}-F[NMeAla(4-thiazolyl)][NMeNle][Sar]NV[NMeF]Y[Sar]WY[Orn]CG-NH2; thioether N-13)	7.00 to 8.00
CCCC[C@H]1C(=O)N(C)[C@@H](C)C(=O)N[C@@H](CCCNC(=N)N)C(=O)NC(C(=O)NCC(N)=O)CSCC(=O)N[C@@H](Cc2ccc(O)cc2)C(=O)N(C)[C@@H](C)C(=O)N[C@@H](CC(N)=O)C(=O)N2CCC[C@H]2C(=O)N[C@@H](CC(N)=O)C(=O)N[C@@H](CC(C)C)C(=O)N2CCC[C@H]2C(=O)N[C@@H](Cc2c[nH]c3ccccc23)C(=O)N[C@@H](CO)C(=O)N[C@@H](Cc2csc3ccccc23)C(=O)N1C (stereo partly shown) [Example 9137] ({CH2CO}-Y[NMeA]NPNLPWS[Bta][NMeNle][NMeA]R[ξC]G-NH2; thioether N-14)	8.00 to 9.00
CCCC[C@H]1C(=O)N(C)[C@@H](CCCC)C(=O)N[C@@H](CN)C(=O)N[C@H](C(=O)NCC(N)=O)CSCC(=O)N[C@@H](Cc2ccc(O)cc2)C(=O)N(C)[C@@H](C)C(=O)N[C@@H](CC(N)=O)C(=O)N2CCC[C@H]2C(=O)N[C@@H](Cc2c[nH]cn2)C(=O)N[C@@H](CC(C)C)C(=O)N2CCC[C@H]2C(=O)N[C@@H](Cc2c[nH]c3ccccc23)C(=O)N[C@@H](CO)C(=O)N[C@@H](Cc2c[nH]c3ccccc23)C(=O)N1C [Example 5182]	7.00 to 8.00
